Patent US20260262643A1, “HERBICIDAL BENZOXAZINES” (FMC CORPORATION, priority 2022, published 2026)

Columns and labels:
barnyardgrass [1] = assay: Test A preemergence; format: in vivo, Echinochloa crusgalli; conditions: visual injury after 10 days, 0 to 100 scale, 0 is no effect, 100 is complete control
Text: (§1) Seeds of plant species selected from barnyardgrass (Echinochloa crusgalli), blackgrass (Alopecurus myosuroides), corn (Zea mays), foxtail, giant (giant foxtail, Setaria faberi), goosegrass (Eleusine indica), kochia (Bassia scoparia), oat, wild (wild oat, Avena fatua), pigweed, palmer (palmer amaranth, palmer pigweed, Amaranthus palmeri), Pigweed, Redroot (redroot pigweed, Amaranthus retroflexus), ragweed (common ragweed, Ambrosia artemisiifolia), ryegrass, Italian (italian ryegrass, Lolium multiflorum), soybean (Glycine max), and wheat (Triticum aestivum) were planted into a blend of loam soil and sand and treated preemergence with a directed soil spray using test chemicals formulated in a non-phytotoxic solvent mixture which included a surfactant. At the same time, plants selected from these crops and weed species and also galium (catchweed bedstraw, Galium aparine) and horseweed (Erigeron canadensis) were planted in pots containing the same blend of loam soil and sand and treated with postemergence applications of test chemicals formulated in the same manner. Plants ranged in height from 2 to 10 cm and were in the one- to two-leaf stage for the postemergence treatment. Treated plants and untreated controls were maintained in a greenhouse for 10 days, after which time all treated plants were compared to untreated controls and visually evaluated for injury. Plant response ratings, summarized in Table A, are based on a 0 to 100 scale where 0 is no effect and 100 is complete control. A dash (-) response means no test result.

blackgrass [2] = assay: Test A preemergence; format: in vivo, Alopecurus myosuroides; conditions: 0 to 100 scale
In short: (§2)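 Visual injury ratings on a 0–100 scale (100 = complete control) versus untreated controls, taken 10 days after treatment in greenhouse. Preemergence: directed soil spray onto seeded loam/sand. Postemergence: foliar application at one- to two-leaf stage, plants 2–10 cm. Formulation: non-phytotoxic solvent plus surfactant.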

corn [3] = assay: Test A preemergence; format: in vivo, Zea mays; conditions: 0 to 100 scale
In short: as §2

foxtail, giant = assay: Test A preemergence; format: in vivo, Setaria faberi; conditions: 0 to 100 scale
In short: as §2

kochia [4] = assay: Test A preemergence; format: in vivo, Bassia scoparia; conditions: 0 to 100 scale
In short: as §2

oat, wild [5] = assay: Test A preemergence; format: in vivo, Avena fatua; conditions: 0 to 100 scale
In short: as §2

pigweed, palmer [6] = assay: Test A preemergence; format: in vivo, Amaranthus palmeri; conditions: 0 to 100 scale
In short: as §2

ragweed [7] = assay: Test A preemergence; format: in vivo, Ambrosia artemisiifolia; conditions: 0 to 100 scale
In short: as §2

ryegrass, Italian [8] = assay: Test A preemergence; format: in vivo, Lolium multiflorum; conditions: 0 to 100 scale
In short: as §2

soybean [9] = assay: Test A preemergence; format: in vivo, Glycine max; conditions: 0 to 100 scale
In short: as §2

wheat [10] = assay: Test A preemergence; format: in vivo, Triticum aestivum; conditions: 0 to 100 scale
In short: as §2

barnyardgrass [11] = assay: Test A postemergence; format: in vivo, Echinochloa crusgalli; conditions: postemergence, 10 days; for Barnyardgrass plant response rating: 125 g ai/ha, 0 to 100 scale, 0 no effect, 100 complete control; for Plant response rating, Barnyardgrass: 500 g ai/ha, visual injury, 0 to 100 scale (0 no effect, 100 complete control)
Text: as §1

blackgrass [12] = assay: Test A postemergence; format: in vivo, Alopecurus myosuroides; conditions: postemergence, 10 days; for Blackgrass plant response rating: 125 g ai/ha, 0 to 100 scale, 0 no effect, 100 complete control; for Plant response rating, Blackgrass: 500 g ai/ha, visual injury, 0 to 100 scale (0 no effect, 100 complete control)
In short: as §2

corn [13] = assay: Test A postemergence; format: in vivo, Zea mays; conditions: postemergence, 10 days; for Corn plant response rating: 125 g ai/ha, 0 to 100 scale, 0 no effect, 100 complete control; for Plant response rating, Corn: 500 g ai/ha, visual injury, 0 to 100 scale (0 no effect, 100 complete control)
In short: as §2

kochia [14] = assay: Test A postemergence; format: in vivo, Bassia scoparia; conditions: postemergence, 10 days; for Kochia plant response rating: 125 g ai/ha, 0 to 100 scale, 0 no effect, 100 complete control; for Plant response rating, Kochia: 500 g ai/ha, visual injury, 0 to 100 scale (0 no effect, 100 complete control)
In short: as §2

oat, wild [15] = assay: Test A postemergence; format: in vivo, Avena fatua; conditions: postemergence, 10 days; for Oat, Wild plant response rating: 125 g ai/ha, 0 to 100 scale, 0 no effect, 100 complete control; for Plant response rating, Oat, Wild: 500 g ai/ha, visual injury, 0 to 100 scale (0 no effect, 100 complete control)
In short: as §2

pigweed, palmer [16] = assay: Test A postemergence; format: in vivo, Amaranthus palmeri; conditions: postemergence, 10 days; for Pigweed, Palmer plant response rating: 125 g ai/ha, 0 to 100 scale, 0 no effect, 100 complete control; for Plant response rating, Pigweed, Palmer: 500 g ai/ha, visual injury, 0 to 100 scale (0 no effect, 100 complete control)
In short: as §2

ragweed [17] = assay: Test A postemergence; format: in vivo, Ambrosia artemisiifolia; conditions: postemergence, 10 days; for Ragweed plant response rating: 125 g ai/ha, 0 to 100 scale, 0 no effect, 100 complete control; for Plant response rating, Ragweed: 500 g ai/ha, visual injury, 0 to 100 scale (0 no effect, 100 complete control)
In short: as §2

ryegrass, Italian [18] = assay: Test A postemergence; format: in vivo, Lolium multiflorum; conditions: postemergence, 10 days; for Ryegrass, Italian plant response rating: 125 g ai/ha, 0 to 100 scale, 0 no effect, 100 complete control; for Plant response rating, Ryegrass, Italian: 500 g ai/ha, visual injury, 0 to 100 scale (0 no effect, 100 complete control)
In short: as §2

soybean [19] = assay: Test A postemergence; format: in vivo, Glycine max; conditions: postemergence, 10 days; for Soybean plant response rating: 125 g ai/ha, 0 to 100 scale, 0 no effect, 100 complete control; for Plant response rating, Soybean: 500 g ai/ha, visual injury, 0 to 100 scale (0 no effect, 100 complete control)
In short: as §2

wheat [20] = assay: Test A postemergence; format: in vivo, Triticum aestivum; conditions: postemergence, 10 days; for Wheat plant response rating: 125 g ai/ha, 0 to 100 scale, 0 no effect, 100 complete control; for Plant response rating, Wheat: 500 g ai/ha, visual injury, 0 to 100 scale (0 no effect, 100 complete control)
In short: as §2

galium = assay: Test A postemergence; format: in vivo, Galium aparine; conditions: postemergence, 10 days; for Galium plant response rating: 125 g ai/ha, 0 to 100 scale, 0 no effect, 100 complete control; for Plant response rating, Galium: 500 g ai/ha, visual injury, 0 to 100 scale (0 no effect, 100 complete control)
In short: as §2

horseweed = assay: Test A postemergence; format: in vivo, Erigeron canadensis; conditions: postemergence, 10 days; for Horseweed plant response rating: 125 g ai/ha, 0 to 100 scale, 0 no effect, 100 complete control; for Plant response rating, Horseweed: 500 g ai/ha, visual injury, 0 to 100 scale (0 no effect, 100 complete control)
In short: as §2

barnyardgrass [21] = assay: Test B flooded paddy test; format: in vivo, Echinochloa crus-galli; conditions: 250 g ai/ha, Flood, 13 days, 0 to 100 scale (0 no effect, 100 complete control)
In short: (§3)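 Each species was raised to the 2-leaf stage. At treatment, each pot received floodwater 3 cm deep, with the chemical delivered into the water. Greenhouse holding followed for 13 days, then percent control was estimated visually versus untreated pots.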

ducksalad = assay: Test B flooded paddy test; format: in vivo, Heteranthera limosa; conditions: 250 g ai/ha, Flood, 13 days, 0 to 100 scale (0 no effect, 100 complete control)
In short: as §3

rice = assay: Test B flooded paddy test; format: in vivo, Oryza sativa; conditions: 250 g ai/ha, Flood, 13 days, 0 to 100 scale (0 no effect, 100 complete control)
In short: as §3

sedge, umbrella = assay: Test B flooded paddy test; format: in vivo, Cyperus difformis; conditions: 250 g ai/ha, Flood, 13 days, 0 to 100 scale (0 no effect, 100 complete control)
In short: as §3

[22] = 500 g ai/ha, visual injury after 10 days, 0 is no effect, 100 is complete control

## Cc1ccc(-n2cnc(CO)n2)cc1C(=O)N1C[C@H](C)Oc2c(Cl)cccc21 [Compound 148]
Barnyardgrass [1]; 125 g ai/ha
  Plant response rating, Barnyardgrass: 70
Barnyardgrass [1]; 500 g ai/ha
  Plant response rating, Barnyardgrass: 100
Blackgrass [2]; 125 g ai/ha
  Plant response rating, Blackgrass: 80
Blackgrass [2]; [22]
  Plant response rating, Blackgrass: 90
Corn [3]; 125 g ai/ha
  Plant response rating, Corn: 60
Corn [3]; [22]
  Plant response rating, Corn: 60
foxtail, giant; 125 g ai/ha
  Plant response rating, Foxtail, Giant: 100
foxtail, giant; [22]
  Plant response rating, Foxtail, Giant: 100
Kochia [4]; 125 g ai/ha
  Plant response rating, Kochia: 20
Kochia [4]; [22]
  Plant response rating, Kochia: 70
oat, wild [5]; 125 g ai/ha
  Plant response rating, Oat, Wild: 20
oat, wild [5]; [22]
  Plant response rating, Oat, Wild: 80
pigweed, palmer [6]; 125 g ai/ha
  Plant response rating, Pigweed, Palmer: 100
pigweed, palmer [6]; [22]
  Plant response rating, Pigweed, Palmer: 100
Ragweed [7]; 125 g ai/ha
  Plant response rating, Ragweed: 30
Ragweed [7]; [22]
  Plant response rating, Ragweed: 90
ryegrass, Italian [8]; 125 g ai/ha
  Plant response rating, Ryegrass, Italian: 80
ryegrass, Italian [8]; [22]
  Plant response rating, Ryegrass, Italian: 100
Soybean [9]; 125 g ai/ha
  Plant response rating, Soybean: 70
Soybean [9]; [22]
  Plant response rating, Soybean: 100
Wheat [10]; 125 g ai/ha
  Plant response rating, Wheat: 30
Wheat [10]; [22]
  Plant response rating, Wheat: 90
Barnyardgrass [11]
  Barnyardgrass plant response rating: 30
  Plant response rating, Barnyardgrass: 80
Blackgrass [12]
  Blackgrass plant response rating: 40
  Plant response rating, Blackgrass: 90
Corn [13]
  Corn plant response rating: 80
  Plant response rating, Corn: 90
Kochia [14]
  Kochia plant response rating: 50
  Plant response rating, Kochia: 80
oat, wild [15]
  Oat, Wild plant response rating: 20
  Plant response rating, Oat, Wild: 70
pigweed, palmer [16]
  Pigweed, Palmer plant response rating: 90
  Plant response rating, Pigweed, Palmer: 100
Ragweed [17]
  Ragweed plant response rating: 50
  Plant response rating, Ragweed: 70
ryegrass, Italian [18]
  Ryegrass, Italian plant response rating: 50
  Plant response rating, Ryegrass, Italian: 80
Soybean [19]
  Soybean plant response rating: 100
  Plant response rating, Soybean: 100
Wheat [20]
  Wheat plant response rating: 30
  Plant response rating, Wheat: 70
galium
  Galium plant response rating: 90
  Plant response rating, Galium: 100
horseweed
  Horseweed plant response rating: 50
  Plant response rating, Horseweed: 50
Barnyardgrass [21]
  Plant response rating, Barnyardgrass: 25
ducksalad
  Plant response rating, Ducksalad: 55
rice
  Plant response rating, Rice: 15
sedge, umbrella
  Plant response rating, Sedge, Umbrella: 65

## Cc1ccc(-n2cnc(C(C)(C)O)n2)cc1C(=O)N1C[C@H](C)Oc2c(Cl)cccc21 [Compound 149]
Barnyardgrass [1]; 125 g ai/ha
  Plant response rating, Barnyardgrass: 100
Barnyardgrass [1]; 500 g ai/ha
  Plant response rating, Barnyardgrass: 100
Blackgrass [2]; 125 g ai/ha
  Plant response rating, Blackgrass: 80
Blackgrass [2]; [22]
  Plant response rating, Blackgrass: 90
Corn [3]; 125 g ai/ha
  Plant response rating, Corn: 60
Corn [3]; [22]
  Plant response rating, Corn: 90
foxtail, giant; 125 g ai/ha
  Plant response rating, Foxtail, Giant: 100
foxtail, giant; [22]
  Plant response rating, Foxtail, Giant: 100
Kochia [4]; 125 g ai/ha
  Plant response rating, Kochia: 100
Kochia [4]; [22]
  Plant response rating, Kochia: 100
oat, wild [5]; 125 g ai/ha
  Plant response rating, Oat, Wild: 90
oat, wild [5]; [22]
  Plant response rating, Oat, Wild: 90
pigweed, palmer [6]; 125 g ai/ha
  Plant response rating, Pigweed, Palmer: 90
pigweed, palmer [6]; [22]
  Plant response rating, Pigweed, Palmer: 100
Ragweed [7]; 125 g ai/ha
  Plant response rating, Ragweed: 100
Ragweed [7]; [22]
  Plant response rating, Ragweed: 90
ryegrass, Italian [8]; 125 g ai/ha
  Plant response rating, Ryegrass, Italian: 100
ryegrass, Italian [8]; [22]
  Plant response rating, Ryegrass, Italian: 100
Soybean [9]; 125 g ai/ha
  Plant response rating, Soybean: 100
Soybean [9]; [22]
  Plant response rating, Soybean: 100
Wheat [10]; 125 g ai/ha
  Plant response rating, Wheat: 30
Wheat [10]; [22]
  Plant response rating, Wheat: 90
Barnyardgrass [11]
  Barnyardgrass plant response rating: 50
  Plant response rating, Barnyardgrass: 100
Blackgrass [12]
  Blackgrass plant response rating: 90
  Plant response rating, Blackgrass: 90
Corn [13]
  Corn plant response rating: 90
  Plant response rating, Corn: 100
Kochia [14]
  Kochia plant response rating: 80
  Plant response rating, Kochia: 90
oat, wild [15]
  Oat, Wild plant response rating: 90
  Plant response rating, Oat, Wild: 90
pigweed, palmer [16]
  Pigweed, Palmer plant response rating: 80
  Plant response rating, Pigweed, Palmer: 90
Ragweed [17]
  Ragweed plant response rating: 80
  Plant response rating, Ragweed: 90
ryegrass, Italian [18]
  Ryegrass, Italian plant response rating: 80
  Plant response rating, Ryegrass, Italian: 100
Soybean [19]
  Soybean plant response rating: 100
  Plant response rating, Soybean: 100
Wheat [20]
  Wheat plant response rating: 90
  Plant response rating, Wheat: 90
galium
  Galium plant response rating: 100
  Plant response rating, Galium: 100
horseweed
  Horseweed plant response rating: 50
  Plant response rating, Horseweed: 70
Barnyardgrass [21]
  Plant response rating, Barnyardgrass: 35
ducksalad
  Plant response rating, Ducksalad: 75
rice
  Plant response rating, Rice: 20
sedge, umbrella
  Plant response rating, Sedge, Umbrella: 100
